Ten molecules from US20070049564A1 (Wyeth, priority 2005, published 2007) can be followed below.

In brackets after ≈: the same amount, converted by molar mass. Read-outs that look alike come from different tables or passages of the source. A value given as a limit tells only on which side of the number the result lay.

One assay relates to Salmonella spp. GC 235. The assay can be described thus: MIC, broth microdilution. The note with it: Salmonella.
The next assay deals with Salmonella spp. GC 566. The experiment in a line: MIC, broth microdilution. Conditions: Salmonella.
A further assay has as its system S. cholerasius GC 1355. The experiment in a line: MIC, broth microdilution.
A further assay deals with E. coli #311. The assay can be described thus: In vivo activity (oral, iv; ED50) against E. coli in mice. The note with it: Escherichia coli. The text has this:
. […] Smith and E. Coli #311 in mammals.
Results of the tests (MIC, oral and IV) are list in Table 7.

[1] abbreviates: SPP.GC235, Salmonella spp. GC 235, Mouse Serum pre-incubation.
The mark [2] stands for this setting: SPP.GC235, Salmonella spp. GC 235, Water pre-incubation.
[3] abbreviates: SPP.GC566, Salmonella spp. GC 566, Mouse Serum pre-incubation.
Where [4] appears, read: SPP.GC566, Salmonella spp. GC 566, Water pre-incubation.
The mark [5] stands for this setting: S. cholerasius GC 1355, Mouse Serum pre-incubation.
The mark [6] stands for this setting: S. cholerasius GC 1355, Water pre-incubation.
The mark [7] stands for this setting: single intravenous dose (SIV), read-out: ED50 E. coli #311 SIV.
Setting [8] is: single oral dose (SOD), read-out: ED50 E. coli #311 SOD.

Take `CCCN(CC(=O)Nc1cc(N(C)C)c2c(c1O)C(=O)C1=C(O)[C@]3(O)C(=O)C(C(N)=O)=C(O)C(N(C)C)C3CC1C2)C(=O)OCc1oc(=O)oc1-c1ccccc1` (stereo in doubt) [Example 110, (2-oxo-5-phenyl-1,3-dioxol-4-yl)methyl 2-{[(7R,10aS)-9-(aminocarbonyl)-4,7-bis(dimethylamino)-1,8,10a,11-tetrahydroxy-10,12-dioxo-5,5a,6,6a,7,10,10a,12-octahydrotetracen-2-yl]amino}-2-oxoethyl(propyl)carbamate]: the MIC in the assay with Salmonella spp. GC 235 (SPP.GC235, pre-incubation in mouse serum) was 4 µg/mL (≈ 5.06 µM); with Salmonella spp. GC 235 (SPP.GC235, pre-incubation in water), 8 µg/mL (≈ 10.1 µM); in the assay on Salmonella spp. GC 566 (SPP.GC566, pre-incubation in mouse serum), 16 µg/mL (≈ 20.3 µM); against Salmonella spp. GC 566 (SPP.GC566, pre-incubation in water), 32 µg/mL (≈ 40.5 µM); against S. cholerasius GC 1355 (pre-incubation in mouse serum) it was over 64 µg/mL; with S. cholerasius GC 1355 (pre-incubation in water) it was over 64 µg/mL.
With `CCCCN(CC(=O)Nc1cc(N(C)C)c2c(c1O)C(=O)C1=C(O)[C@]3(O)C(=O)C(C(N)=O)=C(O)[C@@H](N(C)C)C3CC1C2)C(=O)OCOC(=O)c1ccc(OC)cc1` (stereo partly drawn) [Example 2, ({[(2-{[(7S,10aS)-9-(aminocarbonyl)-4,7-bis(dimethylamino)-1,8,10a,11-tetrahydroxy-10,12-dioxo-5,5a,6,6a,7,10,10a,12-octahydrotetracen-2-yl]amino}-2-oxoethyl)(butyl)amino]carbonyl}oxy)methyl 4-methoxybenzoate], the minimal inhibitory concentration (MIC) in the assay on Salmonella spp. GC 235 (setting [1]) is 8 µg/mL (≈ 10.1 µM); in the assay with Salmonella spp. GC 235 (setting [2]), over 64 µg/mL; in the assay with Salmonella spp. GC 566 (setting [3]), 8 µg/mL (≈ 10.1 µM); in the assay on Salmonella spp. GC 566 (setting [4]), over 64 µg/mL; with S. cholerasius GC 1355 (setting [5]), over 64 µg/mL; against S. cholerasius GC 1355 (setting [6]) it was over 64 µg/mL.
In the case of `CCCCN(CC(=O)Nc1cc(N(C)C)c2c(c1O)C(=O)C1=C(O)[C@]3(O)C(=O)C(C(N)=O)=C(O)[C@@H](N(C)C)C3CC1C2)C(=O)OCOC(=O)c1ccc(C)cc1` (stereo partly drawn) [Example 3, ({[(2-{[(7S,10aS)-9-(aminocarbonyl)-4,7-bis(dimethylamino)-1,8,10a,11-tetrahydroxy-10,12-dioxo-5,5a,6,6a,7,10,10a,12-octahydrotetracen-2-yl]amino}-2-oxoethyl)(butyl)amino]carbonyl}oxy)methyl 4-methylbenzoate], the MIC against Salmonella spp. GC 235 (setting [1]) is 2 µg/mL (≈ 2.57 µM); in the assay on Salmonella spp. GC 235 (setting [2]), over 64 µg/mL; against Salmonella spp. GC 566 (setting [3]) it was 4 µg/mL (≈ 5.14 µM); in the assay with Salmonella spp. GC 566 (setting [4]), over 64 µg/mL; against S. cholerasius GC 1355 (setting [5]), 16 µg/mL (≈ 20.6 µM); against S. cholerasius GC 1355 (setting [6]), over 64 µg/mL.
`CCCN(CC(=O)Nc1cc(N(C)C)c2c(c1O)C(=O)C1=C(O)[C@]3(O)C(=O)C(C(N)=O)=C(O)[C@@H](N(C)C)[C@@H]3C[C@@H]1C2)C(=O)OCOC(=O)c1ccc(OC)cc1` [Example 6, ({[(2-{[(5aR,6aS,7S,10aS)-9-(aminocarbonyl)-4,7-bis(dimethylamino)-1,8,10a,11-tetrahydroxy-10,12-dioxo-5,5a,6,6a,7,10,10a,12-octahydrotetracen-2-yl]amino}-2-oxoethyl)(propyl)amino]carbonyl}oxy)methyl 4-methoxybenzoate]: the MIC was 2 µg/mL (≈ 2.56 µM) in the assay on Salmonella spp. GC 235 (setting [1]); 16 µg/mL (≈ 20.5 µM) in the assay with Salmonella spp. GC 235 (setting [2]); 4 µg/mL (≈ 5.13 µM) in the assay with Salmonella spp. GC 566 (setting [3]); 64 µg/mL (≈ 82.1 µM) in the assay on Salmonella spp. GC 566 (setting [4]); 16 µg/mL (≈ 20.5 µM) in the assay with S. cholerasius GC 1355 (setting [5]); over 64 µg/mL in the assay with S. cholerasius GC 1355 (setting [6]).
Regarding `CCCN(CC(=O)Nc1cc(N(C)C)c2c(c1O)C(=O)C1=C(O)[C@]3(O)C(=O)C(C(N)=O)=C(O)[C@@H](N(C)C)[C@@H]3C[C@@H]1C2)C(=O)OCOC(=O)C1CCC1` [Example 7, ({[(2-{[(5aR,6aS,7S,10aS)-9-(aminocarbonyl)-4,7-bis(dimethylamino)-1,8,10a,11-tetrahydroxy-10,12-dioxo-5,5a,6,6a,7,10,10a,12-octahydrotetracen-2-yl]amino}-2-oxoethyl)(propyl)amino]carbonyl}oxy)methyl cyclobutanecarboxylate], the MIC in the assay on Salmonella spp. GC 235 (setting [1]) is 2 µg/mL (≈ 2.75 µM); in the assay with Salmonella spp. GC 235 (setting [2]), 8 µg/mL (≈ 11 µM); in the assay on Salmonella spp. GC 566 (setting [3]), 1 µg/mL (≈ 1.37 µM); against Salmonella spp. GC 566 (setting [4]) it was 16 µg/mL (≈ 22 µM); in the assay with S. cholerasius GC 1355 (setting [5]), 16 µg/mL (≈ 22 µM); in the assay on S. cholerasius GC 1355 (setting [6]) it was over 64 µg/mL.
As to `CN(C)c1cc(NC(=O)CN(C(=O)OCOC(=O)c2ccc(C(C)(C)C)cc2)C(C)(C)C)c(O)c2c1C[C@H]1C[C@H]3[C@H](N(C)C)C(O)=C(C(N)=O)C(=O)[C@@]3(O)C(O)=C1C2=O` [Example 43, ({[(2-{[(5aR,6aS,7S,10aS)-9-(aminocarbonyl)-4,7-bis(dimethylamino)-1,8,10a,11-tetrahydroxy-10,12-dioxo-5,5a,6,6a,7,10,10a,12-octahydrotetracen-2-yl]amino}-2-oxoethyl)(tert-butyl)amino]carbonyl}oxy)methyl 4-tert-butylbenzoate], the ED50 amounted to 3.6 mg/kg in the assay on E. coli #311 (setting [7]) and 60.4 mg/kg with E. coli #311 (setting [8]).
The matching figures for `CN(C)c1cc(NC(=O)CN(C(=O)OCOC(=O)C2CCCC2)C(C)(C)C)c(O)c2c1C[C@H]1C[C@H]3[C@H](N(C)C)C(O)=C(C(N)=O)C(=O)[C@@]3(O)C(O)=C1C2=O` [Example 46, ({[(2-{[(5aR,6aS,7S,10aS)-9-(aminocarbonyl)-4,7-bis(dimethylamino)-1,8,10a,11-tetrahydroxy-10,12-dioxo-5,5a,6,6a,7,10,10a,12-octahydrotetracen-2-yl]amino}-2-oxoethyl)(tert-butyl)amino]carbonyl}oxy)methyl cyclopentanecarboxylate]: 2.16 mg/kg and 29.2 mg/kg.
For `CCCCOC(=O)N(CC(=O)Nc1cc(N(C)C)c2c(c1O)C(=O)C1=C(O)[C@]3(O)C(=O)C(C(N)=O)=C(O)[C@@H](N(C)C)[C@@H]3C[C@@H]1C2)C(C)(C)C` [Example 58, butyl 2-{[(5aR,6aS,7S,10aS)-9-(aminocarbonyl)-4,7-bis(dimethylamino)-1,8,10a,11-tetrahydroxy-10,12-dioxo-5,5a,6,6a,7,10,10a,12-octahydrotetracen-2-yl]amino}-2-oxoethyl(tert-butyl)carbamate], the ED50 in the assay with E. coli #311 (setting [7]) is over 8 mg/kg; in the assay on E. coli #311 (setting [8]), over 32 mg/kg.
As for `CC(C)COC(=O)N(CC(=O)Nc1cc(N(C)C)c2c(c1O)C(=O)C1=C(O)[C@]3(O)C(=O)C(C(N)=O)=C(O)[C@@H](N(C)C)[C@@H]3C[C@@H]1C2)C(C)(C)C` [Example 59, isobutyl 2-{[(5aR,6aS,7S,10aS)-9-(aminocarbonyl)-4,7-bis(dimethylamino)-1,8,10a,11-tetrahydroxy-10,12-dioxo-5,5a,6,6a,7,10,10a,12-octahydrotetracen-2-yl]amino}-2-oxoethyl(tert-butyl)carbamate], the figures for the ED50 with E. coli #311 (setting [7]) and in the assay with E. coli #311 (setting [8]) were over 8 mg/kg and over 32 mg/kg, respectively.
With `COC(=O)N(CC(=O)Nc1cc(N(C)C)c2c(c1O)C(=O)C1=C(O)[C@]3(O)C(=O)C(C(N)=O)=C(O)[C@@H](N(C)C)[C@@H]3C[C@@H]1C2)C(C)(C)C` [Example 60, methyl 2-{[(5aR,6aS,7S,10aS)-9-(aminocarbonyl)-4,7-bis(dimethylamino)-1,8,10a,11-tetrahydroxy-10,12-dioxo-5,5a,6,6a,7,10,10a,12-octahydrotetracen-2-yl]amino}-2-oxoethyl(tert-butyl)carbamate], the ED50 is over 8 mg/kg in the assay on E. coli #311 (setting [7]) and over 32 mg/kg with E. coli #311 (setting [8]).
